Laboratory results published in patent publication US9145415B2, “Nitrogen-containing heterocyclic compound or salt thereof” (FUJIFILM Corporation, priority 2012, dated 2015).
Like-named read-outs stand apart in the source and are kept apart here.

What was measured:
Molm-13 cells = experiment: Leukemia cell proliferation inhibition test (ATPlite), Molm-13; format: cell-based; details: read-out: MOLM13 cell proliferation inhibition effect
In short: (§1)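 Molm-13 or MV4-11 cells at 10,000 cells/well in RPMI with 10% FBS and pen/strep were exposed to serially diluted compound for 72 h at 37 °C, 5% CO2. Total cellular ATP was read by luciferase luminescence. GI50 was taken relative to 0.1% DMSO control, from duplicates by sigmoid non-linear regression.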

[1] = biological target: T1, human FLT3 protein (FLT3 (WT)) (Homo sapiens, UniProt P36888); experiment: FLT3 inhibition test (FLT3 enzyme inhibition, time-resolved fluorescence of substrate peptide phosphorylation); format: biochemical; details: read-out: FLT3 (WT) enzyme inhibition activity
T1 construct: human FLT3 protein (intracellular region, 564 to 993 aa); GST; purchased Carna Biosciences; host or cells: baculovirus expression system
T1 sequence (P36888 564-993): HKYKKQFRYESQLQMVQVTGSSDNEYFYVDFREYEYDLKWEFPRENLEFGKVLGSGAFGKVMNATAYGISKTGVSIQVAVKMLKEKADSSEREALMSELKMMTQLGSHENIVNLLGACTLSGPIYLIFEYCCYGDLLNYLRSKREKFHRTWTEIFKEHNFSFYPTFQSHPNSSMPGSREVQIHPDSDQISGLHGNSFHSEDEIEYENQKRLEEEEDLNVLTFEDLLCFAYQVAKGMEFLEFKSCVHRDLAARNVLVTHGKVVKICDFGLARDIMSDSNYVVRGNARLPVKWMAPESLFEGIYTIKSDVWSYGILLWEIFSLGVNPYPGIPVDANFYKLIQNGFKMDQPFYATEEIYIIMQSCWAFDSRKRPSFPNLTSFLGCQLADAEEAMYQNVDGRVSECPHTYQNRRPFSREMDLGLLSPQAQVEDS
In short: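 Wild-type human FLT3 (1.2 μg) pre-incubated with compound 15 min at 25° C in 100 mM HEPES pH 7.5, 10 mM MgCl2, 25 mM NaCl, 1 mM DTT. Reaction started with substrate peptide and ATP (final 50 μM), run 30 min at 25° C; phosphorylation read by time-resolved fluorescence.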

MV4-11 cells = experiment: Leukemia cell proliferation inhibition test (ATPlite), MV4-11; format: cell-based; details: read-out: MV4-11 cell proliferation inhibition effect
In short: as §1

[2] = Homo sapiens, MOLM-13, 72 h, Molm-13, 72 hours culture, ATPlite, GI50 per method
[3] = GST-fused human FLT3 (564 to 993 aa), ATP 50 μM
[4] = Homo sapiens, MV4-11, 72 h, MV4-11, 72 hours culture, ATPlite, GI50 per method
[5] = Homo sapiens, MOLM-13, MOLM13 cell
[6] = Homo sapiens, MV4-11, MV4-11 cell

IC50 (Molm-13 cells; [2]) [nM] | IC50 [1, 3] [nM] | IC50 (MV4-11 cells; [4]) [nM] | IC50 (Molm-13 cells; [5]) [nM] | IC50 ([1]; FLT3 (WT)) [nM] | IC50 (MV4-11 cells; [6]) [nM] | IC50 (Molm-13 cells; Molm-13, 72 hours culture, ATPlite, GI50 per method) [nM] | IC50 (MV4-11 cells; MV4-11, 72 hours culture, ATPlite, GI50 per method) [nM] | Structure (SMILES)
< 10 | < 10 | < 10 | – | – | – | – | – | CCCNc1nc(Nc2cccc(F)c2)ncc1-c1cn(CCNC(=O)[C@H](C)N(C)C(=O)/C=C/CN(C)C)nn1 [Compound 17-2, (S,E)-4-(dimethylamino)-N-(1-((2-(4-(2-((3-fluorophenyl)amino)-4-(propylamino)pyrimidin-5-yl)-1H-1,2,3-triazol-1-yl)ethyl)amino)-1-oxopropan-2-yl)-N-methyl-2-butenamide]
100 to 1000 | < 10 | 100 to 1000 | – | – | – | – | – | CCCNc1nc(Nc2ccc(C#N)cc2)ncc1C#CCNC(=O)CCCNC(=O)/C=C/CN(C)C [Compound 7-91]
10 to 100 | < 10 | 10 to 100 | – | – | – | – | – | CCCNc1nc(Nc2ccc(C(N)=O)cc2)ncc1C(=O)Nc1cccc(NC(=O)[C@H](C)N(C)C(=O)/C=C/CBr)c1 [Compound 3-7, (S,E)-N-(3-(2-(4-bromo-N-methyl-2-butenamido)propanamido)phenyl)-2-((4-carbamoylphenyl)amino)-4-(propylamino)pyrimidine-5-carboxamide]
100 to 1000 | < 10 | 10 to 100 | – | – | – | – | – | CCCNc1nc(Nc2ccc(C(N)=O)cc2)ncc1-c1cccc(CCNC(=O)CNC(=O)/C=C/CN(C)C)c1 [Compound 16-1, (E)-4-((5-(3-(2-(2-(4-(dimethylamino)-2-butenamido)actamido)ethyl)phenyl)-4-(propylamino)pyrimidin-2-yl)amino)benzamide]
< 10 | < 10 | < 10 | – | – | – | – | – | C[C@@H](C(=O)NCCCC#Cc1cnc(Nc2ccnc(F)c2)nc1NCCCF)N(C)C(=O)/C=C/CN(C)C [Compound 9-17]
10 to 100 | < 10 | 10 to 100 | – | – | – | – | – | CCCNc1nc(Nc2ccc(C(N)=O)cc2)ncc1C(=O)Nc1cccc(NC(=O)C(C)(C)NC(=O)/C=C/CN(C)C)c1 [Compound 3-13]
< 10 | < 10 | < 10 | – | – | – | – | – | COCCCNc1nc(Nc2ccc(F)cc2)ncc1C#CCCCNC(=O)CN(C)C(=O)/C=C/CN(C)C [Compound 10-27]
< 10 | < 10 | < 10 | – | – | – | – | – | CCCNc1nc(Nc2cccc(F)c2)ncc1C#CCCCNC(=O)[C@@H]1C[C@H](O)CN1C(=O)/C=C/CN(C)C [Compound 7-67]
– | – | – | < 10 | < 10 | < 10 | – | – | CCCNc1nc(Nc2cnc3[nH]nc(C)c3c2)ncc1C#CCCCNC(=O)[C@H](C)N(C)C(=O)/C=C/CN(C)C [Compound 22-51, (S,E)-4-(Dimethylamino)-N-methyl-N-(1-((5-(2-((3-methyl-1H-pyrazolo[3,4-b]pyridin-5-yl)amino)-4-(propylamino)pyrimidin-5-yl)-4-pentyn-1-yl)amino)-1-oxopropan-2-yl)-2-butenamide]
< 10 | < 10 | < 10 | – | – | – | – | – | CNc1nc(Nc2ccnc(OC)c2)ncc1C#CCCCNC(=O)[C@H](C)N(C)C(=O)/C=C/CN(C)C [Compound 9-39]
< 10 | < 10 | < 10 | – | – | – | – | – | CNc1nc(Nc2ccc3[nH]ncc3c2)ncc1C#CCCCNC(=O)[C@H](C)N(C)C(=O)/C=C/CN(C)C [Compound 10-60]
< 10 | < 10 | < 10 | – | – | – | – | – | CNc1nc(Nc2ccc(C#N)cc2)ncc1C#CCCCNC(=O)[C@@H]1C[C@H](F)CN1C(=O)/C=C/CN(C)C [Compound 7-87, (2S,4S)—N-(5-(2-((4-Cyanophenyl)amino)-4-(methylamino)pyrimidin-5-yl)-4-pentyn-1-yl)-1-((E)-4-(dimethylamino)-2-butenoyl)-4-fluoropyrrolidine-2-carboxamide]
– | < 10 | – | – | – | – | 10 to 100 | 10 to 100 | CCCNc1nc(Nc2ccc(C(N)=O)cc2)ncc1C(=O)N[C@H]1CCC[C@H](Nc2ccccc2NC(=O)/C=C/CN(C)C)C1 [Compound 3-27]
100 to 1000 | 10 to 100 | 100 to 1000 | – | – | – | – | – | CCCNc1nc(Nc2cccc(F)c2)ncc1-c1nc2ccc(NC(=O)[C@H](C)N(C)C(=O)/C=C/CN(C)C)cc2o1 [Compound 6-23, (S,E)-4-(dimethylamino)-N-(1-((2-(2-((3-fluorophenyl)amino)-4-(propylamino)pyrimidin-5-yl)benzo[d]oxazol-6-yl)amino)-1-oxopropan-2-yl)-N-methyl-2-butenamide]
– | – | – | 100 to 1000 | 10 to 100 | 10 to 100 | – | – | CCCNc1nc(Nc2cccc3[nH]ncc23)ncc1C#CCCCNC(=O)[C@H](C)N(C)C(=O)/C=C/CN(C)C [Compound 21-54]
100 to 1000 | 10 to 100 | 100 to 1000 | – | – | – | – | – | CCCNc1nc(NCC)ncc1C#CCCCNC(=O)[C@H](C)N(C)C(=O)/C=C/CN(C)C [Compound 11-3]

IC50 (Molm-13 cells; [2]) [nM] | IC50 [1, 3] [nM] | IC50 (MV4-11 cells; [4]) [nM] | IC50 (Molm-13 cells; [5]) [nM] | IC50 ([1]; FLT3 (WT)) [nM] | IC50 (MV4-11 cells; [6]) [nM] | IC50 (Molm-13 cells; Molm-13, 72 hours culture, ATPlite, GI50 per method) [nM] | IC50 (MV4-11 cells; MV4-11, 72 hours culture, ATPlite, GI50 per method) [nM] | Structure (SMILES)
10 to 100 | < 10 | 10 to 100 | – | – | – | – | – | CCCNc1nc(Nc2ccc(C)cc2)ncc1C#CCCCNC(=O)[C@H](C)N(C)C(=O)/C=C/CN(C)C [Compound 12-9]
10 to 100 | < 10 | 10 to 100 | – | – | – | – | – | CCCNc1nc(Nc2ccc(C#N)cc2)ncc1C#CCCCNC(=O)[C@H]1CCCCN1C(=O)/C=C/CN(C)C [Compound 7-38]
< 10 | < 10 | < 10 | – | – | – | – | – | CCCNc1nc(Nc2ccc(C(N)=O)cc2)ncc1C(=O)Nc1cccc(NC(=O)[C@H](C)N(C)C(=O)/C=C/CN(C)CCO)c1 [Compound 4-9]
10 to 100 | < 10 | < 10 | – | – | – | – | – | CCCNc1nc(Nc2cc(C)no2)ncc1C#CCCCNC(=O)[C@H](C)N(C)C(=O)/C=C/CN(C)C [Compound 7-78]
< 10 | < 10 | < 10 | – | – | – | – | – | CCCNc1nc(Nc2cccc(F)c2)ncc1C#CC(C)(C)CCNC(=O)[C@H](C)N(C)C(=O)/C=C/CN(C)C [Compound 7-28]
10 to 100 | < 10 | 10 to 100 | – | – | – | – | – | CCCNc1nc(Nc2cccc(F)c2)ncc1C#CCCCNC(=O)[C@H](C(C)C)N(C)C(=O)/C=C/CN(C)C [Compound 7-10]
10 to 100 | < 10 | 10 to 100 | – | – | – | – | – | C[C@@H](C(=O)NCCCC#Cc1cnc(Nc2cccc(F)c2)nc1NCCc1cccs1)N(C)C(=O)/C=C/CN(C)C [Compound 10-9]
– | – | – | < 10 | < 10 | 10 to 100 | – | – | CNc1ncc(C#CCCCNC(=O)[C@H](C)N(C)C(=O)/C=C/CN(C)C)c(Nc2ccc(OC)cc2)n1 [Compound 21-48]
– | – | – | < 10 | < 10 | < 10 | – | – | CCCNc1nc(Nc2ccc3cnn(CCOC)c3c2)ncc1C#CCCCNC(=O)[C@H](C)N(C)C(=O)/C=C/CN(C)C [Compound 22-11]
< 10 | < 10 | < 10 | – | – | – | – | – | C[C@@H](C(=O)NCCCC#Cc1cnc(Nc2cccc(F)c2)nc1NCCN1CCOCC1)N(C)C(=O)/C=C/CN(C)C [Compound 10-6]
– | – | – | < 10 | < 10 | < 10 | – | – | CCCNc1nc(Nc2cnc3c(c2)c(C)nn3CCOC)ncc1C#CCCCNC(=O)[C@@H]1CCCN1C(=O)/C=C/CN(C)C [Compound 22-46]
< 10 | < 10 | < 10 | – | – | – | – | – | CN(C)C/C=C/C(=O)N1CCC[C@H]1C(=O)NCCCC#Cc1cnc(Nc2ccc3cn[nH]c3c2)nc1NC1CC1 [Compound 10-75]
10 to 100 | 10 to 100 | 10 to 100 | – | – | – | – | – | C=CC(=O)NCC(=O)N1CCC(NC(=O)c2cnc(NCCc3ccncc3)nc2NCCC)CC1 [Compound 6-19]
< 10 | < 10 | < 10 | – | – | – | – | – | CNc1nc(Nc2ccc(F)cc2)ncc1C#CCCCNC(=O)[C@@H]1CC(F)(F)CN1C(=O)/C=C/CN(C)C [Compound 7-93]
10 to 100 | < 10 | < 10 | – | – | – | – | – | CCCNc1nc(Nc2cccc(Cl)c2)ncc1C#CCCCNC(=O)[C@H](C)N(C)C(=O)/C=C/CN(C)C [Compound 12-2, (S,E)-N-(1-((5-(2-((3-chlorophenyl)amino)-4-(propylamino)pyrimidin-5-yl)-4-pentyn-1-yl)amino)-1-oxopropan-2-yl)-4-(dimethylamino)-N-methyl-2-butenamide]
< 10 | < 10 | < 10 | – | – | – | – | – | COCCNc1nc(Nc2ccc(C#N)cc2)ncc1C#CCCCNC(=O)[C@H](C)N(C)C(=O)/C=C/CN(C)C [Compound 10-50]
